# From patent US20240122865A1, “Methods of Protecting RNA” (Pfizer Inc., priority 2021, published 2024)
# System: FgenL model RNA
# Test: TapeStation Assay, FgenL model RNA
# Assay type: biochemical, Trichoderma atroviride
# Design: Conc. FgenL#1 / Conc. FgenL#2: unit not given here
# Settings: FgenL RNA, 20 mM amino acids, 50 mM CAPS pH 11, 50° C. 15 min, vs Time 0
# Method in brief: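 Chi18 or FgenL model RNA at 50 ng/μL in 50 mM CAPS pH 11 was mixed with amino acids (stocks in CAPS, readjusted to >pH 11) and heated at 50° C for 0 or 15 minutes; time-0 samples stayed on ice. Intact RNA was measured by capillary electrophoresis with optical detection and compared with a no-degradation baseline.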
SMILES,% Control N = 1 [%],% Control N = 2 [%]
C[C@@H](O)[C@H](N)C(=O)O [Threonine],49.3,34.6
N[C@@H](Cc1c[nH]c2ccccc12)C(=O)O [Tryptophan],3.5,1.5
N[C@@H](Cc1ccc(O)cc1)C(=O)O [Tyrosine],33.9,21.9
CC(C)[C@H](N)C(=O)O [Valine],25.4,18.4

# Same assay, conditions: FgenL RNA, 20 mM amino acids, 50 mM CAPS pH 11, 50° C. 15 min, vs Time 0, Avg N=2
row,SMILES,% Control Average [%]
1,C[C@@H](O)[C@H](N)C(=O)O [Threonine],41.9
2,N[C@@H](Cc1c[nH]c2ccccc12)C(=O)O [Tryptophan],2.5
3,N[C@@H](Cc1ccc(O)cc1)C(=O)O [Tyrosine],27.9
4,CC(C)[C@H](N)C(=O)O [Valine],21.9

# Same assay, conditions: intact FgenL RNA after 15 min at 50° C., 20 mM amino acids in 50 mM CAPS pH 11, run #1
row,SMILES,Conc. FgenL#1
1,C[C@@H](O)[C@H](N)C(=O)O [Threonine],17
2,N[C@@H](Cc1c[nH]c2ccccc12)C(=O)O [Tryptophan],1.21
3,N[C@@H](Cc1ccc(O)cc1)C(=O)O [Tyrosine],11.7
4,CC(C)[C@H](N)C(=O)O [Valine],8.77

# Same assay, conditions: intact FgenL RNA after 15 min at 50° C., 20 mM amino acids in 50 mM CAPS pH 11, run #2
row,SMILES,Conc. FgenL#2
1,C[C@@H](O)[C@H](N)C(=O)O [Threonine],12
2,N[C@@H](Cc1c[nH]c2ccccc12)C(=O)O [Tryptophan],0.51
3,N[C@@H](Cc1ccc(O)cc1)C(=O)O [Tyrosine],7.59
4,CC(C)[C@H](N)C(=O)O [Valine],6.38

# System: FgenL mRNA construct
# Test: Size Exclusion Base Hydrolysis Degradation Assay, FgenL
# Assay type: biochemical, Trichoderma atroviride
# Settings: FgenL 0.1 mg/mL, 25 mM amino acid, 50 mM CAPS, T=0, replicate 1
# Method in brief: (§1)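 mRNA (diluted to 1.0 mg/mL) preincubated 1 h with amino acid, then brought to pH 11 with CAPS and NaOH at room temperature. Intact mRNA quantified by size-exclusion UPLC, peak area at 250 nm in the T=0 elution window, expressed as percentage of T=0 at 2, 10 and 24 hrs.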
row,SMILES,T0 R1 peak area at 250 nm
1,C[C@@H](O)[C@H](N)C(=O)O [Threonine],17711
2,N[C@@H](Cc1c[nH]c2ccccc12)C(=O)O [Tryptophan],15191
3,N[C@@H](Cc1ccc(O)cc1)C(=O)O [Tyrosine],22082
4,CC(C)[C@H](N)C(=O)O [Valine],17745

# Same assay, conditions: FgenL, 25 mM amino acid, 50 mM CAPS pH 11, room temperature, 2 hrs
row,SMILES,"T2 Avg, peak area as percentage of T=0 [%]"
1,C[C@@H](O)[C@H](N)C(=O)O [Threonine],47.3
2,N[C@@H](Cc1c[nH]c2ccccc12)C(=O)O [Tryptophan],30.2
3,N[C@@H](Cc1ccc(O)cc1)C(=O)O [Tyrosine],64.7
4,CC(C)[C@H](N)C(=O)O [Valine],22.8

# Same assay, conditions: FgenL, 25 mM amino acid, 50 mM CAPS pH 11, room temperature, 2 hrs, replicate 1
row,SMILES,T2 R1 peak area at 250 nm
1,C[C@@H](O)[C@H](N)C(=O)O [Threonine],8436
2,N[C@@H](Cc1c[nH]c2ccccc12)C(=O)O [Tryptophan],4991
3,N[C@@H](Cc1ccc(O)cc1)C(=O)O [Tyrosine],13039
4,CC(C)[C@H](N)C(=O)O [Valine],4305

# Same assay, conditions: FgenL, 25 mM amino acid, 50 mM CAPS pH 11, room temperature, 10 hrs
row,SMILES,"T10 Avg, peak area as percentage of T=0 [%]"
1,C[C@@H](O)[C@H](N)C(=O)O [Threonine],2.6
2,N[C@@H](Cc1c[nH]c2ccccc12)C(=O)O [Tryptophan],0.0
3,N[C@@H](Cc1ccc(O)cc1)C(=O)O [Tyrosine],15.0
4,CC(C)[C@H](N)C(=O)O [Valine],0.0

# Same assay, conditions: FgenL, 25 mM amino acid, 50 mM CAPS pH 11, room temperature, 10 hrs, replicate 1
row,SMILES,T10 R1 peak area at 250 nm
1,C[C@@H](O)[C@H](N)C(=O)O [Threonine],904
2,N[C@@H](Cc1c[nH]c2ccccc12)C(=O)O [Tryptophan],0
3,N[C@@H](Cc1ccc(O)cc1)C(=O)O [Tyrosine],1912
4,CC(C)[C@H](N)C(=O)O [Valine],0

# Same assay, conditions: FgenL, 25 mM amino acid, 50 mM CAPS pH 11, room temperature, 24 hrs
row,SMILES,"T24 Avg, peak area as percentage of T=0 [%]"
1,C[C@@H](O)[C@H](N)C(=O)O [Threonine],0.0
2,N[C@@H](Cc1c[nH]c2ccccc12)C(=O)O [Tryptophan],0.0
3,N[C@@H](Cc1ccc(O)cc1)C(=O)O [Tyrosine],5.6
4,CC(C)[C@H](N)C(=O)O [Valine],0.0

# Same assay, conditions: FgenL, 25 mM amino acid, 50 mM CAPS pH 11, room temperature, 24 hrs, replicate 1
row,SMILES,T24 R1 peak area at 250 nm
1,C[C@@H](O)[C@H](N)C(=O)O [Threonine],0
2,N[C@@H](Cc1c[nH]c2ccccc12)C(=O)O [Tryptophan],0
3,N[C@@H](Cc1ccc(O)cc1)C(=O)O [Tyrosine],912
4,CC(C)[C@H](N)C(=O)O [Valine],0

# Same assay, conditions: FgenL, 25 mM amino acid, T=0 (reference)
row,SMILES,"T0 Avg, peak area as percentage of T=0 [%]"
1,C[C@@H](O)[C@H](N)C(=O)O [Threonine],100.0
2,N[C@@H](Cc1c[nH]c2ccccc12)C(=O)O [Tryptophan],100.0
3,N[C@@H](Cc1ccc(O)cc1)C(=O)O [Tyrosine],100.0
4,CC(C)[C@H](N)C(=O)O [Valine],100.0

# System: Chi18 mRNA construct
# Test: Size Exclusion Base Hydrolysis Degradation Assay, Chi18
# Assay type: biochemical, Trichoderma atroviride
# Settings: Chi18 0.1 mg/mL, 25 mM amino acid, 50 mM CAPS, T=0, replicate 1
# Method in brief: as §1
row,SMILES,T0 R1 peak area at 250 nm
1,C[C@@H](O)[C@H](N)C(=O)O [Threonine],39202
2,N[C@@H](Cc1c[nH]c2ccccc12)C(=O)O [Tryptophan],8974
3,N[C@@H](Cc1ccc(O)cc1)C(=O)O [Tyrosine],21493
4,CC(C)[C@H](N)C(=O)O [Valine],29804

# Same assay, conditions: Chi18, 25 mM amino acid, 50 mM CAPS pH 11, room temperature, 2 hrs
row,SMILES,"T2 Avg, peak area as percentage of T=0 [%]"
1,C[C@@H](O)[C@H](N)C(=O)O [Threonine],74.6
2,N[C@@H](Cc1c[nH]c2ccccc12)C(=O)O [Tryptophan],78.0
3,N[C@@H](Cc1ccc(O)cc1)C(=O)O [Tyrosine],90.9
4,CC(C)[C@H](N)C(=O)O [Valine],56.7

# Same assay, conditions: Chi18, 25 mM amino acid, 50 mM CAPS pH 11, room temperature, 2 hrs, replicate 1
row,SMILES,T2 R1 peak area at 250 nm
1,C[C@@H](O)[C@H](N)C(=O)O [Threonine],28759
2,N[C@@H](Cc1c[nH]c2ccccc12)C(=O)O [Tryptophan],7000
3,N[C@@H](Cc1ccc(O)cc1)C(=O)O [Tyrosine],22110
4,CC(C)[C@H](N)C(=O)O [Valine],12369

# Same assay, conditions: Chi18, 25 mM amino acid, 50 mM CAPS pH 11, room temperature, 10 hrs
row,SMILES,"T10 Avg, peak area as percentage of T=0 [%]"
1,C[C@@H](O)[C@H](N)C(=O)O [Threonine],26.0
2,N[C@@H](Cc1c[nH]c2ccccc12)C(=O)O [Tryptophan],47.7
3,N[C@@H](Cc1ccc(O)cc1)C(=O)O [Tyrosine],56.8
4,CC(C)[C@H](N)C(=O)O [Valine],0.0

# Same assay, conditions: Chi18, 25 mM amino acid, 50 mM CAPS pH 11, room temperature, 10 hrs, replicate 1
row,SMILES,T10 R1 peak area at 250 nm
1,C[C@@H](O)[C@H](N)C(=O)O [Threonine],10963
2,N[C@@H](Cc1c[nH]c2ccccc12)C(=O)O [Tryptophan],3243
3,N[C@@H](Cc1ccc(O)cc1)C(=O)O [Tyrosine],14946
4,CC(C)[C@H](N)C(=O)O [Valine],0

# Same assay, conditions: Chi18, 25 mM amino acid, 50 mM CAPS pH 11, room temperature, 24 hrs
row,SMILES,"T24 Avg, peak area as percentage of T=0 [%]"
1,C[C@@H](O)[C@H](N)C(=O)O [Threonine],0.0
2,N[C@@H](Cc1c[nH]c2ccccc12)C(=O)O [Tryptophan],0.0
3,N[C@@H](Cc1ccc(O)cc1)C(=O)O [Tyrosine],37.6
4,CC(C)[C@H](N)C(=O)O [Valine],0.0

# Same assay, conditions: Chi18, 25 mM amino acid, 50 mM CAPS pH 11, room temperature, 24 hrs, replicate 1
row,SMILES,T24 R1 peak area at 250 nm
1,C[C@@H](O)[C@H](N)C(=O)O [Threonine],0
2,N[C@@H](Cc1c[nH]c2ccccc12)C(=O)O [Tryptophan],0
3,N[C@@H](Cc1ccc(O)cc1)C(=O)O [Tyrosine],10375
4,CC(C)[C@H](N)C(=O)O [Valine],0

# Same assay, conditions: Chi18, 25 mM amino acid, T=0 (reference)
row,SMILES,"T0 Avg, peak area as percentage of T=0 [%]"
1,C[C@@H](O)[C@H](N)C(=O)O [Threonine],100.0
2,N[C@@H](Cc1c[nH]c2ccccc12)C(=O)O [Tryptophan],100.0
3,N[C@@H](Cc1ccc(O)cc1)C(=O)O [Tyrosine],100.0
4,CC(C)[C@H](N)C(=O)O [Valine],100.0

# Target: Chi18 model RNA
# Test: Droplet Digital Polymerase Chain Reaction (ddPCR) Assay, Chi18
# Assay type: biochemical, Trichoderma atroviride
# Settings: percent protection, pH 11.0, 30° C., 16 hours, n = 2
# Method in brief: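 Chi18 (25 fg/μL) or FgenL (10 fg/μL) RNA at pH 11.0 incubated 16 h with amino acids (10-point half-log series, ~300 mM top stock in CAPS), at 30° C or 44° C respectively. Intact RNA reverse-transcribed, ddPCR 5′-positive droplet fraction taken as protection; EC50 from four-parameter logistic fit.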
row,SMILES,EC50 [mM]
1,C[C@@H](O)[C@H](N)C(=O)O [Threonine],> 30
2,N[C@@H](Cc1c[nH]c2ccccc12)C(=O)O [Tryptophan],> 30
3,N[C@@H](Cc1ccc(O)cc1)C(=O)O [Tyrosine],> 30
4,CC(C)[C@H](N)C(=O)O [Valine],> 30

# System: FgenL model RNA
# Test: not given
# Assay type: biochemical, Trichoderma atroviride
# Settings: percent protection, pH 11.0, 44° C., 16 hours, n = 2
row,SMILES,EC50 [mM]
1,C[C@@H](O)[C@H](N)C(=O)O [Threonine],> 30
2,N[C@@H](Cc1c[nH]c2ccccc12)C(=O)O [Tryptophan],> 30
3,N[C@@H](Cc1ccc(O)cc1)C(=O)O [Tyrosine],> 30
4,CC(C)[C@H](N)C(=O)O [Valine],> 30
